Measured values published in ChEMBL document CHEMBL1201861, “Genomics of Drug Sensitity in Cancer screening data, Wellcome Trust Sanger Institute”.

What was measured:
Test in all cases: cells
[1] = test system: LB2241-RCC; assay type: functional, cell-based, Homo sapiens; conditions: Homo sapiens, LB2241-RCC;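 also: cell viability assay measuring how strongly the cultured human renal carcinoma line is prevented from growing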
Description: SANGER: Inhibition of human LB2241-RCC cell growth in a cell viability assay.

[2] = test system: OAW-42; assay type: functional, cell-based, Homo sapiens; conditions: Homo sapiens, OAW-42;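 also: growth inhibition of OAW-42 cells, read out with a cell viability assay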
Description: SANGER: Inhibition of human OAW-42 cell growth in a cell viability assay.

[3] = test system: G-401; assay type: functional, cell-based, Homo sapiens; conditions: Homo sapiens, G-401
Description: SANGER: Inhibition of human G-401 cell growth in a cell viability assay.

[4] = test system: EW-24; assay type: functional, cell-based; conditions: Homo sapiens;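 also: human EW-24 cancer cell line, growth inhibition read out via a cell viability assay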
Description: SANGER: Inhibition of human EW-24 cell growth in a cell viability assay.

[5] = test system: NCI-H1092; assay type: functional, cell-based; conditions: Homo sapiens;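 also: cell growth inhibition measured with a cell viability assay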
Description: SANGER: Inhibition of human NCI-H1092 cell growth in a cell viability assay.

[6] = test system: NY; assay type: functional, cell-based, Homo sapiens; conditions: Homo sapiens, NY
Description: SANGER: Inhibition of human NY cell growth in a cell viability assay.

[7] = test system: SW1573; assay type: functional, cell-based, Homo sapiens; conditions: Homo sapiens, SW1573;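 also: growth inhibition of SW1573 cells, read out with a cell viability assay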
Description: SANGER: Inhibition of human SW1573 cell growth in a cell viability assay.

[8] = test system: A4-Fuk; assay type: functional, cell-based; conditions: Homo sapiens;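 also: growth inhibition of A4-Fuk cells, read out by a cell viability assay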
Description: SANGER: Inhibition of human A4-Fuk cell growth in a cell viability assay.

[9] = test system: SJSA-1; assay type: functional, cell-based, Homo sapiens; conditions: Homo sapiens, SJSA-1;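 also: growth inhibition of human SJSA-1 cells, read out through a cell viability measurement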
Description: SANGER: Inhibition of human SJSA-1 cell growth in a cell viability assay.

[10] = test system: TGW; assay type: functional, cell-based; conditions: Homo sapiens;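 also: growth inhibition of human TGW cells, read out with a cell viability assay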
Description: SANGER: Inhibition of human TGW cell growth in a cell viability assay.

[11] = test system: LB831-BLC; assay type: functional, cell-based, Homo sapiens; conditions: Homo sapiens, LB831-BLC;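 also: growth inhibition of LB831-BLC cells, read out with a cell viability assay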
Description: SANGER: Inhibition of human LB831-BLC cell growth in a cell viability assay.

[12] = test system: JVM-3; assay type: functional, cell-based; conditions: Homo sapiens;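 also: growth inhibition of human JVM-3 cells, read out with a cell viability assay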
Description: SANGER: Inhibition of human JVM-3 cell growth in a cell viability assay.

[13] = test system: YKG-1; assay type: functional, cell-based, Homo sapiens; conditions: Homo sapiens, YKG-1;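 also: cell growth inhibition, read out with a viability assay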
Description: SANGER: Inhibition of human YKG-1 cell growth in a cell viability assay.

[14] = test system: MC116; assay type: functional, cell-based; conditions: Homo sapiens;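 also: growth inhibition of MC116 cells, read out with a cell viability assay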
Description: SANGER: Inhibition of human MC116 cell growth in a cell viability assay.

[15] = test system: A498; assay type: functional, cell-based, Homo sapiens; conditions: Homo sapiens, A498;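 also: growth inhibition of human A498 cells, read out with a cell viability assay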
Description: SANGER: Inhibition of human A498 cell growth in a cell viability assay.

[16] = test system: COLO-679; assay type: functional, cell-based, Homo sapiens; conditions: Homo sapiens, COLO-679
Description: SANGER: Inhibition of human COLO-679 cell growth in a cell viability assay.

[17] = test system: SK-NEP-1; assay type: functional, cell-based; conditions: Homo sapiens;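 also: growth inhibition of human SK-NEP-1 cells, read out by a cell viability assay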
Description: SANGER: Inhibition of human SK-NEP-1 cell growth in a cell viability assay.

[18] = test system: SK-UT-1; assay type: functional, cell-based, Homo sapiens; conditions: Homo sapiens, SK-UT-1;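 also: growth inhibition of SK-UT-1 cells, measured by a cell viability assay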
Description: SANGER: Inhibition of human SK-UT-1 cell growth in a cell viability assay.

[19] = test system: SNU-449; assay type: functional, cell-based, Homo sapiens; conditions: Homo sapiens, SNU-449
Description: SANGER: Inhibition of human SNU-449 cell growth in a cell viability assay.

[20] = test system: ML-2; assay type: functional, cell-based; conditions: Homo sapiens;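 also: growth inhibition of ML-2 cells, measured with a cell viability readout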
Description: SANGER: Inhibition of human ML-2 cell growth in a cell viability assay.

[21] = test system: SW13; assay type: functional, cell-based, Homo sapiens; conditions: Homo sapiens, SW13;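 also: IC50 is inhibition of SW13 cell growth, read out with a cell viability assay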
Description: SANGER: Inhibition of human SW13 cell growth in a cell viability assay.

[22] = test system: LS-513; assay type: functional, cell-based, Homo sapiens; conditions: Homo sapiens, LS-513
Description: SANGER: Inhibition of human LS-513 cell growth in a cell viability assay.

[23] = test system: HuCCT-1; assay type: functional, cell-based, Homo sapiens, HuCCT1; conditions: Homo sapiens, HuCCT-1;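 also: growth inhibition of HuCCT-1 cells, read out by a cell viability assay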
Description: SANGER: Inhibition of human HuCCT1 cell growth in a cell viability assay.

[24] = test system: SHP77; assay type: functional, cell-based, Homo sapiens, SHP-77; conditions: Homo sapiens, SHP77;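 also: growth inhibition of human SHP-77 cells measured by a cell viability assay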
Description: SANGER: Inhibition of human SHP-77 cell growth in a cell viability assay.

[25] = test system: TCC-SUP; assay type: functional, cell-based, Homo sapiens; conditions: Homo sapiens, TCC-SUP;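 also: growth inhibition of TCC-SUP cells, read out with a cell viability assay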
Description: SANGER: Inhibition of human TCCSUP cell growth in a cell viability assay.

[26] = test system: HC-1; assay type: functional, cell-based; conditions: Homo sapiens;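 also: growth inhibition of HC-1 cells measured by a cell viability assay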
Description: SANGER: Inhibition of human HC-1 cell growth in a cell viability assay.

[27] = test system: H4; assay type: functional, cell-based; conditions: Homo sapiens
Description: SANGER: Inhibition of human H4 cell growth in a cell viability assay.

[28] = test system: HTC-C3; assay type: functional, cell-based, Homo sapiens; conditions: Homo sapiens, HTC-C3;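 also: inhibition of cell growth, read out with a cell viability assay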
Description: SANGER: Inhibition of human HTC-C3 cell growth in a cell viability assay.

[29] = test system: MHH-PREB-1; assay type: functional, cell-based; conditions: Homo sapiens;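 also: cell viability assay measuring inhibition of proliferation of human MHH-PREB-1 cells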
Description: SANGER: Inhibition of human MHH-PREB-1 cell growth in a cell viability assay.

[30] = test system: MDA-MB-175-VII; assay type: functional, cell-based, Homo sapiens; conditions: Homo sapiens, MDA-MB-175-VII
[31] = test system: DEL; assay type: functional, cell-based; conditions: Homo sapiens;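 also: growth inhibition of the human DEL cell line, read out with a cell viability assay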
Description: SANGER: Inhibition of human DEL cell growth in a cell viability assay.

[32] = test system: MSTO-211H; assay type: functional, cell-based, Homo sapiens; conditions: Homo sapiens, MSTO-211H
Description: SANGER: Inhibition of human MSTO-211H cell growth in a cell viability assay.

[33] = test system: HCE-4; assay type: functional, cell-based, Homo sapiens; conditions: Homo sapiens, HCE-4;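 also: cell viability assay measuring inhibition of growth in the human HCE-4 cell line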
Description: SANGER: Inhibition of human HCE-4 cell growth in a cell viability assay.

[34] = test system: RPMI-8226; assay type: functional, cell-based; conditions: Homo sapiens
Description: SANGER: Inhibition of human RPMI-8226 cell growth in a cell viability assay.

[35] = test system: IST-SL1; assay type: functional, cell-based, Homo sapiens; conditions: Homo sapiens, IST-SL1;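 also: growth inhibition of human IST-SL1 cells, read out with a cell viability assay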
Description: SANGER: Inhibition of human IST-SL1 cell growth in a cell viability assay.

[36] = test system: NCI-H209; assay type: functional, cell-based; conditions: Homo sapiens;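 also: growth inhibition of human NCI-H209 cells, measured by a cell viability assay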
Description: SANGER: Inhibition of human NCI-H209 cell growth in a cell viability assay.

[37] = test system: GR-ST; assay type: functional, cell-based; conditions: Homo sapiens
Description: SANGER: Inhibition of human GR-ST cell growth in a cell viability assay.

[38] = test system: NCI-H1755; assay type: functional, cell-based, Homo sapiens; conditions: Homo sapiens, NCI-H1755;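 also: cell viability readout used to measure growth inhibition of NCI-H1755 cells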
Description: SANGER: Inhibition of human NCI-H1755 cell growth in a cell viability assay.

[39] = test system: 647-V; assay type: functional, cell-based, Homo sapiens; conditions: Homo sapiens, 647-V;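 also: growth inhibition of 647-V cells, read out with a cell viability assay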
Description: SANGER: Inhibition of human 647-V cell growth in a cell viability assay.

[40] = test system: P30-OHK; assay type: functional, cell-based; conditions: Homo sapiens;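 also: growth inhibition of the P30-OHK cell line, read out with a cell viability assay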
Description: SANGER: Inhibition of human P30-OHK cell growth in a cell viability assay.

[41] = test system: BCPAP; assay type: functional, cell-based, Homo sapiens; conditions: Homo sapiens, BCPAP;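 also: growth inhibition of BCPAP cells, read out in a cell viability assay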
Description: SANGER: Inhibition of human BCPAP cell growth in a cell viability assay.

[42] = test system: A253 cell line; assay type: functional, cell-based, Homo sapiens; conditions: Homo sapiens, A253;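 also: growth inhibition of A253 cells, read out with a cell viability assay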
Description: SANGER: Inhibition of human A253 cell growth in a cell viability assay.

[43] = test system: BB49-HNC; assay type: functional, cell-based, Homo sapiens; conditions: Homo sapiens, BB49-HNC;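 also: cell viability assay read-out, reported as inhibition of BB49-HNC cell growth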
Description: SANGER: Inhibition of human BB49-HNC cell growth in a cell viability assay.

[44] = test system: D-336MG; assay type: functional, cell-based, Homo sapiens; conditions: Homo sapiens, D-336MG
Description: SANGER: Inhibition of human D-336MG cell growth in a cell viability assay.

[45] = test system: Becker; assay type: functional, cell-based, Homo sapiens; conditions: Homo sapiens, Becker;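 also: growth inhibition of Becker cells, read out with a cell viability assay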
Description: SANGER: Inhibition of human Becker cell growth in a cell viability assay.

[46] = test system: ATN-1; assay type: functional, cell-based; conditions: Homo sapiens;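 also: growth inhibition of human ATN-1 cells, read out with a cell viability assay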
Description: SANGER: Inhibition of human ATN-1 cell growth in a cell viability assay.

[47] = test system: HL-60; assay type: functional, cell-based; conditions: Homo sapiens;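 also: growth inhibition of human HL-60 cells, read out with a cell viability assay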
Description: SANGER: Inhibition of human HL-60 cell growth in a cell viability assay.

[48] = test system: SCC-15; assay type: functional, cell-based, Homo sapiens; conditions: Homo sapiens, SCC-15;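 also: growth inhibition of SCC-15 cells, read out with a cell viability assay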
Description: SANGER: Inhibition of human SCC-15 cell growth in a cell viability assay.

[49] = test system: LB373-MEL-D; assay type: functional, cell-based, Homo sapiens; conditions: Homo sapiens, LB373-MEL-D;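 also: growth inhibition of the cell line, read out in a cell viability assay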
Description: SANGER: Inhibition of human LB373-MEL-D cell growth in a cell viability assay.

[50] = test system: CAL-62; assay type: functional, cell-based, Homo sapiens; conditions: Homo sapiens, CAL-62;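 also: growth inhibition of CAL-62 cells, read out with a cell viability assay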
Description: SANGER: Inhibition of human CAL-62 cell growth in a cell viability assay.

[51] = test system: EW-3; assay type: functional, cell-based; conditions: Homo sapiens;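 also: cell viability assay read-out, IC50 reflects inhibition of growth of the EW-3 cells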
Description: SANGER: Inhibition of human EW-3 cell growth in a cell viability assay.

[52] = test system: SF-539; assay type: functional, cell-based, Homo sapiens; conditions: Homo sapiens, SF-539;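 also: Read-out is a cell viability assay, with IC50 reflecting inhibition of cell growth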
Description: SANGER: Inhibition of human SF539 cell growth in a cell viability assay.

[53] = test system: NCI-H1651; assay type: functional, cell-based, Homo sapiens; conditions: Homo sapiens, NCI-H1651;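 also: Read-out is a cell viability assay, with IC50 expressing inhibition of NCI-H1651 cell growth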
Description: SANGER: Inhibition of human NCI-H1651 cell growth in a cell viability assay.

Question: With `CN(c1ncccc1CNc1nc(Nc2ccc3c(c2)CC(=O)N3)ncc1C(F)(F)F)S(C)(=O)=O` [PF-00562271] as the compound, how does the IC50 [1] read?
Answer: > 2.56 µM

Question: And the IC50 [2]?
Answer: > 2.56 µM

Question: What about the IC50 [3] of the same compound?
Answer: > 2.56 µM

Question: And the IC50 [4]?
Answer: > 2.56 µM

Question: And the IC50 [5]?
Answer: > 2.56 µM

Question: What about the IC50 [6] of the same compound?
Answer: > 2.56 µM

Question: What about the IC50 [7] of the same compound?
Answer: > 2.56 µM

Question: What about the IC50 [8] of the same compound?
Answer: > 2.56 µM

Question: And the IC50 [9]?
Answer: > 2.56 µM

Question: What about the IC50 [10] of the same compound?
Answer: > 2.56 µM

Question: What about the IC50 [11] of the same compound?
Answer: 2.01 µM

Question: What about the IC50 [12] of the same compound?
Answer: > 2.56 µM

Question: And the IC50 [13]?
Answer: > 2.56 µM

Question: And the IC50 [14]?
Answer: > 2.56 µM

Question: And the IC50 [15]?
Answer: > 2.56 µM

Question: And the IC50 [16]?
Answer: > 2.56 µM

Question: And the IC50 [17]?
Answer: > 2.56 µM

Question: What about the IC50 [18] of the same compound?
Answer: 1.45 µM

Question: And the IC50 [19]?
Answer: > 2.56 µM

Question: What about the IC50 [20] of the same compound?
Answer: 1.67 µM

Question: What about the IC50 [21] of the same compound?
Answer: > 2.56 µM

Question: And the IC50 [22]?
Answer: > 2.56 µM

Question: And the IC50 [23]?
Answer: > 2.56 µM

Question: And the IC50 [24]?
Answer: > 2.56 µM

Question: What about the IC50 [25] of the same compound?
Answer: > 2.56 µM

Question: What about the IC50 [26] of the same compound?
Answer: > 2.56 µM

Question: And the IC50 [27]?
Answer: > 2.56 µM

Question: What about the IC50 [28] of the same compound?
Answer: > 2.56 µM

Question: What about the IC50 [29] of the same compound?
Answer: > 2.56 µM

Question: What about the IC50 [30] of the same compound?
Answer: > 2.56 µM

Question: And the IC50 [31]?
Answer: > 2.56 µM

Question: And the IC50 [32]?
Answer: > 2.56 µM

Question: What about the IC50 [33] of the same compound?
Answer: > 2.56 µM

Question: What about the IC50 [34] of the same compound?
Answer: > 2.56 µM

Question: What about the IC50 [35] of the same compound?
Answer: > 2.56 µM

Question: What about the IC50 [36] of the same compound?
Answer: > 2.56 µM

Question: What about the IC50 [37] of the same compound?
Answer: > 2.56 µM

Question: What about the IC50 [38] of the same compound?
Answer: > 2.56 µM

Question: What about the IC50 [39] of the same compound?
Answer: > 2.56 µM

Question: What about the IC50 [40] of the same compound?
Answer: > 2.56 µM

Question: And the IC50 [41]?
Answer: 1.01 µM

Question: And the IC50 [42]?
Answer: > 2.56 µM

Question: What about the IC50 [43] of the same compound?
Answer: > 2.56 µM

Question: What about the IC50 [44] of the same compound?
Answer: 1.86 µM

Question: And the IC50 [45]?
Answer: > 2.56 µM

Question: And the IC50 [46]?
Answer: > 2.56 µM

Question: And the IC50 [47]?
Answer: > 2.56 µM

Question: What about the IC50 [48] of the same compound?
Answer: > 2.56 µM

Question: What about the IC50 [49] of the same compound?
Answer: > 2.56 µM

Question: What about the IC50 [50] of the same compound?
Answer: 1.32 µM

Question: What about the IC50 [51] of the same compound?
Answer: > 2.56 µM

Question: What about the IC50 [52] of the same compound?
Answer: > 2.56 µM

Question: And the IC50 [53]?
Answer: > 2.56 µM

Question: With `CCC1=C[C@@H]2CN(C1)Cc1c([nH]c3ccccc13)[C@@](C(=O)OC)(c1cc3c(cc1OC)N(C)[C@H]1[C@@](O)(C(=O)OC)[C@H](OC(C)=O)[C@]4(CC)C=CCN5CC[C@]31[C@@H]54)C2` [VINORELBINE] as the compound, how does the IC50 [1] read?
Answer: > 0.064 µM

Question: And the IC50 [2]?
Answer: 0.0425 µM

Question: And the IC50 [3]?
Answer: 0.00787 µM

Question: What about the IC50 [4] of the same compound?
Answer: > 0.064 µM

Question: What about the IC50 [5] of the same compound?
Answer: 0.0581 µM

Question: What about the IC50 [6] of the same compound?
Answer: 0.00812 µM

Question: What about the IC50 [7] of the same compound?
Answer: 0.034 µM

Question: What about the IC50 [8] of the same compound?
Answer: 0.00404 µM

Question: And the IC50 [9]?
Answer: 0.0126 µM

Question: What about the IC50 [10] of the same compound?
Answer: > 0.064 µM

Question: And the IC50 [11]?
Answer: 0.0292 µM

Question: And the IC50 [12]?
Answer: > 0.064 µM

Question: What about the IC50 [13] of the same compound?
Answer: 0.00373 µM

Question: What about the IC50 [14] of the same compound?
Answer: 0.0155 µM

Question: What about the IC50 [15] of the same compound?
Answer: 0.0262 µM

Question: What about the IC50 [16] of the same compound?
Answer: 0.00183 µM

Question: And the IC50 [17]?
Answer: 0.00899 µM

Question: What about the IC50 [18] of the same compound?
Answer: 0.00223 µM

Question: What about the IC50 [19] of the same compound?
Answer: > 0.064 µM

Question: What about the IC50 [20] of the same compound?
Answer: 0.00432 µM

Question: What about the IC50 [21] of the same compound?
Answer: 0.00472 µM

Question: And the IC50 [22]?
Answer: > 0.064 µM

Question: And the IC50 [23]?
Answer: 0.00278 µM

Question: What about the IC50 [24] of the same compound?
Answer: > 0.064 µM

Question: And the IC50 [25]?
Answer: 0.0271 µM

Question: And the IC50 [26]?
Answer: 0.00389 µM

Question: What about the IC50 [27] of the same compound?
Answer: 0.00785 µM

Question: What about the IC50 [28] of the same compound?
Answer: 0.0265 µM

Question: And the IC50 [29]?
Answer: 0.00688 µM

Question: And the IC50 [30]?
Answer: > 0.064 µM

Question: And the IC50 [31]?
Answer: 0.00363 µM

Question: What about the IC50 [32] of the same compound?
Answer: > 0.064 µM

Question: And the IC50 [33]?
Answer: 0.0208 µM

Question: What about the IC50 [34] of the same compound?
Answer: 0.017 µM

Question: What about the IC50 [35] of the same compound?
Answer: 0.0393 µM

Question: What about the IC50 [36] of the same compound?
Answer: 0.0508 µM

Question: What about the IC50 [37] of the same compound?
Answer: 0.00827 µM

Question: And the IC50 [38]?
Answer: 0.0174 µM

Question: And the IC50 [39]?
Answer: 0.0209 µM

Question: What about the IC50 [40] of the same compound?
Answer: 0.0101 µM

Question: What about the IC50 [41] of the same compound?
Answer: 0.00298 µM

Question: And the IC50 [42]?
Answer: 0.00122 µM

Question: What about the IC50 [43] of the same compound?
Answer: > 0.064 µM

Question: And the IC50 [44]?
Answer: 0.0639 µM

Question: What about the IC50 [45] of the same compound?
Answer: 0.00539 µM

Question: What about the IC50 [46] of the same compound?
Answer: 0.00194 µM

Question: What about the IC50 [47] of the same compound?
Answer: > 0.064 µM

Question: What about the IC50 [48] of the same compound?
Answer: 0.0087 µM

Question: And the IC50 [49]?
Answer: 0.0468 µM

Question: What about the IC50 [50] of the same compound?
Answer: 0.00818 µM

Question: What about the IC50 [51] of the same compound?
Answer: > 0.064 µM

Question: What about the IC50 [52] of the same compound?
Answer: 0.0141 µM

Question: What about the IC50 [53] of the same compound?
Answer: 0.0606 µM
